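Five concentrations, 48 hours, 96-well plates. Abbreviation: GI50, concentration required for 50% inhibition of growth. At the TGI there is no net growth.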

Among the test systems are MALME-3M melanoma; HOP-62 NSCLC; HOP-92 NSCLC; OVCAR-8 ovarian; OVCAR-5 ovarian; SK-MEL-28 melanoma; SN12C renal; M14 melanoma; HCT-116 colon; OVCAR-4 ovarian.
Common to all, as to experiment: DTP human tumour cell line panel, 48 h

The term TGI denotes the concentration giving total growth inhibition. A low value points to greater sensitivity of the cells. In the case of `COc1ccccc1/C=C/C(=O)c1sc(-c2cccnc2)nc1C`, the TGI with MALME-3M melanoma, in the assay on HOP-62 NSCLC, in the assay with HOP-92 NSCLC, in the assay on OVCAR-8 ovarian, in the assay on OVCAR-5 ovarian and in the assay with SK-MEL-28 melanoma was over 100 µM throughout. The total growth inhibition concentration (TGI) in the assay with SN12C renal was over 100 µM.

Take `CCN1C(C)=NC2C(=O)c3ccccc3C(=O)C21` (stereo not drawn): the concentration for total growth inhibition (TGI) with MALME-3M melanoma, in the assay on HOP-62 NSCLC, with M14 melanoma, with OVCAR-8 ovarian, in the assay with HCT-116 colon and in the assay on SK-MEL-28 melanoma was over 100 µM in each case. The TGI with SN12C renal is over 100 µM; in the assay on OVCAR-4 ovarian, 62.7 µM.

Regarding `CC(C)C1C(=O)N2CCCC2C2(O)OC(NC(=O)C3C=C4c5cccc6[nH]cc(c56)CC4N(C)C3)(C(C)C)C(=O)N12` (stereo not drawn), the concentration for total growth inhibition (TGI) was over 100 µM with HOP-62 NSCLC; 75.5 µM with M14 melanoma; 30.1 µM in the assay with HOP-92 NSCLC; 52.9 µM with OVCAR-8 ovarian; 29.7 µM with OVCAR-5 ovarian; 33.5 µM in the assay on HCT-116 colon. Also, the TGI in the assay with SK-MEL-28 melanoma is over 100 µM; in the assay with SN12C renal, over 100 µM; with OVCAR-4 ovarian, 47.9 µM.

Turning to `COc1ccc2cc(C(=O)c3ccccc3C(=O)O)ccc2c1`, the TGI with MALME-3M melanoma, in the assay with HOP-62 NSCLC, with M14 melanoma, in the assay with OVCAR-8 ovarian, in the assay on OVCAR-5 ovarian and in the assay with HCT-116 colon was over 100 µM in each case. Besides, the concentration for total growth inhibition (TGI) in the assay with SK-MEL-28 melanoma, with SN12C renal and in the assay on OVCAR-4 ovarian was over 100 µM in each case.

With `O=C(O)/C(Cl)=C(\Cl)Nc1cccc(C(F)(F)F)c1`, the concentration for total growth inhibition (TGI) in the assay with MALME-3M melanoma is over 100 µM; in the assay on HOP-62 NSCLC, over 100 µM; with M14 melanoma it was 33.4 µM; in the assay on HOP-92 NSCLC it was 22.3 µM; with OVCAR-8 ovarian, over 100 µM; with SK-MEL-28 melanoma it was over 100 µM. Also, the total growth inhibition concentration (TGI) in the assay with SN12C renal and in the assay on OVCAR-4 ovarian was over 100 µM in each case.

The term GI50 denotes the concentration giving 50% growth inhibition. Take `COc1ccc(OC)c(/C=C/c2nnc(Nc3ccc(Cl)cc3)o2)c1`: the GI50 with MALME-3M melanoma is 9.87 µM; in the assay with HOP-62 NSCLC, 2710 nM; in the assay on M14 melanoma, 20.7 µM; in the assay on OVCAR-8 ovarian, 4.91 µM; in the assay with OVCAR-5 ovarian, 32.5 µM; in the assay with HCT-116 colon it was 2970 nM. Besides, the GI50 with SK-MEL-28 melanoma is 26.8 µM; with SN12C renal it was 4.21 µM; with OVCAR-4 ovarian, 2440 nM. Moreover, the total growth inhibition concentration (TGI) was 52.4 µM with MALME-3M melanoma; 7.68 µM in the assay with HOP-62 NSCLC; over 100 µM with M14 melanoma; 21 µM in the assay with OVCAR-8 ovarian; over 100 µM in the assay on OVCAR-5 ovarian; 13.1 µM with HCT-116 colon. Moreover, the total growth inhibition concentration (TGI) in the assay on SK-MEL-28 melanoma was over 100 µM; in the assay with SN12C renal, over 100 µM; with OVCAR-4 ovarian it was 6.76 µM.

As to `CCc1ccc(C2=C/C(=C/c3ccc(Cl)cc3)C(=O)N2CCc2ccc(S(N)(=O)=O)cc2)cc1`, the GI50 with MALME-3M melanoma is 1.96 µM; with HOP-62 NSCLC it was 2420 nM; with M14 melanoma, 2.08 µM; in the assay on HOP-92 NSCLC, 1670 nM; with OVCAR-8 ovarian, 3.2 µM; in the assay with OVCAR-5 ovarian, 2.18 µM. Also, the GI50 with HCT-116 colon is 1740 nM; with SK-MEL-28 melanoma, 4.28 µM; in the assay on OVCAR-4 ovarian it was 2560 nM. The total growth inhibition concentration (TGI) is 5.19 µM in the assay on MALME-3M melanoma; 5.86 µM in the assay on HOP-62 NSCLC; 5.26 µM with M14 melanoma; 4.8 µM in the assay on HOP-92 NSCLC; 13.1 µM with OVCAR-8 ovarian; 5.7 µM in the assay with OVCAR-5 ovarian. Besides, the concentration for total growth inhibition (TGI) with HCT-116 colon came out at 3.23 µM; with SK-MEL-28 melanoma it was 15.8 µM; in the assay with OVCAR-4 ovarian, 8.03 µM.

As for `CCc1ccccc1NC(=O)/C(CC(=O)c1c(C)n([O-])c2ccccc2[n+]1=O)=N\NS(=O)(=O)c1ccc(C)cc1`, the TGI was over 100 µM with MALME-3M melanoma; over 100 µM with HOP-62 NSCLC; over 100 µM with M14 melanoma; over 100 µM in the assay with OVCAR-8 ovarian; over 100 µM with OVCAR-5 ovarian; 55.3 µM with HCT-116 colon. Besides, the results for the concentration for total growth inhibition (TGI) in the assay on SK-MEL-28 melanoma, in the assay with SN12C renal and in the assay with OVCAR-4 ovarian were over 100 µM, over 100 µM and 90.4 µM, respectively.

`C/C(CC(=O)CCCC(=O)Nc1ccc(Cl)cc1Cl)=N/NC(=O)CC#N`: the TGI in the assay with MALME-3M melanoma, in the assay on M14 melanoma, with OVCAR-8 ovarian, in the assay on OVCAR-5 ovarian, in the assay on HCT-116 colon and in the assay with SK-MEL-28 melanoma was over 100 µM throughout. Further, the concentration for total growth inhibition (TGI) with SN12C renal and with OVCAR-4 ovarian was over 100 µM throughout.

With `CCN1C(=O)N(CC)C2C1NN=c1s/c(=C3\C(=O)N(CCC(C)C)c4ccccc43)c(=O)n12` (stereo not drawn), the GI50 with HOP-62 NSCLC was 1890 nM; in the assay on HOP-92 NSCLC, 1470 nM; in the assay with HCT-116 colon it was 1060 nM; with SK-MEL-28 melanoma it was 2.58 µM; in the assay on SN12C renal, 2.01 µM; in the assay with OVCAR-4 ovarian, 1020 nM. In addition, the TGI with HOP-62 NSCLC was 6.45 µM; in the assay with HOP-92 NSCLC it was 5.83 µM; with HCT-116 colon, 2.49 µM; with SK-MEL-28 melanoma, over 100 µM; in the assay with SN12C renal, 4.99 µM; in the assay with OVCAR-4 ovarian, over 100 µM.

As to `Cc1nc(NC(=S)NC(=O)c2ccc(Cl)c(Cl)c2)sc1C(=O)/C=C/c1ccccc1[N+](=O)[O-]`, the concentration for total growth inhibition (TGI) with MALME-3M melanoma stood at 41.9 µM; in the assay with HOP-62 NSCLC, 47.9 µM; in the assay with M14 melanoma, 51.5 µM; in the assay with HOP-92 NSCLC it was 24.2 µM; with OVCAR-8 ovarian, 63.5 µM; in the assay with HCT-116 colon it was 47.9 µM. The TGI in the assay with SK-MEL-28 melanoma was 78.4 µM; in the assay on SN12C renal, 61.7 µM; with OVCAR-4 ovarian it was 88.2 µM.

Turning to `O=C(O)C1C2C=CC(O2)C1C(=O)Nc1ccccc1` (stereo not drawn), the concentration for total growth inhibition (TGI) in the assay with MALME-3M melanoma, with HOP-62 NSCLC, in the assay on M14 melanoma, in the assay with OVCAR-8 ovarian, with OVCAR-5 ovarian and in the assay on HCT-116 colon was over 100 µM throughout. Also, the concentration for total growth inhibition (TGI) in the assay on SK-MEL-28 melanoma, in the assay on SN12C renal and in the assay with OVCAR-4 ovarian was over 100 µM throughout.

As for `O=C(O)C(=O)Cc1ccc2c(c1)OCO2`, the total growth inhibition concentration (TGI) in the assay with HOP-62 NSCLC, with M14 melanoma, in the assay on HOP-92 NSCLC, in the assay on OVCAR-8 ovarian, in the assay with OVCAR-5 ovarian and with HCT-116 colon was over 100 µM each time. The total growth inhibition concentration (TGI) in the assay on SK-MEL-28 melanoma, in the assay with SN12C renal and in the assay on OVCAR-4 ovarian was over 100 µM each time.

The record behind these values is PubChem BioAssay (NCI).
